Broadly, the IC50 is the concentration at which inhibition is half-maximal. By CC50 is commonly meant the concentration at which the toxic effect on the cells reaches its halfway point. A lower CC50 goes with harm at low concentration.

The text below walks through data of EP4541363A1, “USE OF THE (+)-ELATOL COMPOUND FOR TREATING OR PREVENTING A NAEGLERIA FOWLERI INFECTION” (Universidad de la Laguna, priority 2022, dated 2023).

Data set [1] concerns Naegleria fowleri ATCC® 30215™. In words: In vitro activity against Naegleria fowleri, alamarBlue colorimetric assay, strain ATCC 30215. The format is cell-based. The note with it: for IC50: Naegleria fowleri, ATCC30215; for IC50 / ATCC® 30215™ IC50: Table 2, strain ATCC® 30215™, 48 hours at 37°C, mean ± standard deviation; for ATCC® 30215™ SI: selectivity index, CC50 in J774A.1 versus IC50 in strain ATCC® 30215™. As for the experimental part:
(§1) Two strains of Naegleria fowleri obtained from the American Type Culture Collection (ATCC® 30808™ and ATCC® 30215™) were used (LG Promochem, Barcelona, Spain). Both strains were grown in 2% (w/v) Bacto Casitone (Thermo Fisher Scientific, Madrid, Spain) supplemented with 10% (v/v) fetal bovine serum, 0.3 µg/ml penicillin G sodium salt and 0.5 mg/ml streptomycin sulphate (Sigma-Aldrich, Madrid, Spain) at 37°C.
(§2) All tested compounds were dissolved in dimethyl sulfoxide (DMSO). The in vitro activity of the selected compounds was assessed by a colorimetric assay based on the alamarBlue® reagent. Amoebas were seeded in 96-well plates at a concentration of 2 × 10^5 cells/ml ([…]). Next, serial dilutions (in the same medium as the amoebas) of the compound were prepared and added ([…]) to the wells containing the Naegleria fowleri cells. Lastly, 10% of the total volume of alamarBlue® was added to the wells and incubated under gentle stirring at 37°C for 48 hours. After that time, the emitted fluorescence was read on an EnSpire® Multimode Plate Reader (PerkinElmer, Spain) using a […] (Rizo-Liendo A. et al. "In Vitro Activity of Statins against Naegleria fowleri."; Pathog, vol. 8, no. 3, p. 122 - 2019; doi: 10.3390/ pathogens8030122).
On the technique in general: Resazurin is reduced to fluorescent resorufin, in cell work by metabolically active cells.

Data set [2] deals with Naegleria fowleri ATCC® 30808™. In words: In vitro activity against Naegleria fowleri, alamarBlue colorimetric assay, strain ATCC 30808. The format is cell-based. As to conditions: for IC50 / ATCC® 30808™ IC50: strain ATCC® 30808™, 48 hours at 37°C, mean ± standard deviation; for ATCC® 30808™ SI: selectivity index, CC50 in J774A.1 versus IC50 in strain ATCC® 30808™. The protocol: as §1, §2

Data set [3] can be described thus: Cytotoxicity assay based on alamarBlue reagent. The format is cell-based. The note with it: mouse, cytotoxic concentration 50 against murine macrophages J774A.1, 24 hours at 37°C, 5% CO2, mean ± standard deviation. As for the experimental part: (§3) The cells were cultured in DMEM (Dulbecco's Modified Eagle's Medium) supplemented with 10% fetal bovine serum and 10 µg/ml gentamicin (Sigma-Aldrich, Madrid, Spain). The culture was maintained at 37°C in a 5% CO2 atmosphere. To assess cytotoxicity, an assay based on the alamarBlue® reagent was carried out. Briefly, the murine macrophages (2 × 10^5 cells/ml) were incubated with serial dilutions of the test compound that were performed in the same culture medium. Lastly, alamarBlue® was added to each well and kept at 37°C and 5% CO2 for 24 hours.

For data set [4], the system named is murine macrophages J774A.1. Kind of data set: Cytotoxicity assay based on alamarBlue reagent. Type of data set: cell-based. As to conditions: cytotoxic concentration 50 against murine macrophages J774A.1; 24 hours at 37°C, 5% CO2; mean ± standard deviation. The protocol: as §3
Data set [5] concerns Naegleria fowleri. The note with it: infected PAM patients; alone or in combination with other medicines; cited from earlier work.
Setting [6] is: Naegleria fowleri, ATCC30808, Table 2, read-out: ATCC® 30808™ IC50.

Converted amounts (≈) assume the structure as drawn. Where two headings read alike, the source gives them in different places. Some results are limits rather than exact numbers.

As to `CCCCCCCCCCCCCCCCOP(=O)([O-])OCC[N+](C)(C)C` [Miltefosine], in data set [1], the IC50 came out at 33.2 ± 2.95 µg/mL (≈ 81.6 µM) and the “ATCC® 30215™ SI” value came out at 1.56. For the same molecule, the IC50 in data set [2] (setting [6]) worked out at 15.8 ± 1.72 µg/mL (≈ 38.7 µM). In addition, the “ATCC® 30808™ SI” value in data set [2] stood at 3.30. Moreover, the CC50 at 24 h in data set [3] was 52.1 ± 3.61 µg/mL (≈ 128 µM).

With lauriterol, in data set [1], the “ATCC® 30215™ IC50” value turned out to be 3.45 ± 0.63 µg/mL and the “ATCC® 30215™ SI” value is 6.85. In data set [2] (Table 2), the “ATCC® 30808™ IC50” value amounted to 3.96 ± 0.76 µg/mL. In addition, the “ATCC® 30808™ SI” value in data set [2] came out at 5.97. The CC50 in data set [4] came to 23.65 ± 2.30 µg/mL.

As for `C=C1C[C@@H](O)[C@@H](Br)C(C)(C)[C@]12CC[C@](C)(Br)[C@@H](Cl)C2` [(+)-obtusol], the 50% inhibitory concentration (IC50) in data set [2] (Table 1) was more than 25 µg/mL.

In turn, `C=C1C[C@@H](O)[C@@H](Br)C(C)(C)[C@]12CC[C@](C)(Cl)[C@@H](Br)C2` [(-)-cartilagineol] had an IC50 in data set [2] (Table 1) of more than 25 µg/mL.

For `C=C1C[C@H](O)[C@H](Br)C(C)(C)[C@@]12CCC(C)=C(Cl)C2` [(-)-elatol], the IC50 in data set [2] (Table 1) is 12.27 ± 2.68 µg/mL (≈ 36.8 µM). Besides, the “ATCC® 30808™ IC50” value in data set [2] (Table 2) worked out at 12.27 ± 2.68 µg/mL. Besides, the “ATCC® 30808™ SI” value in data set [2] is 4.39. Further, the CC50 in data set [4] amounted to 53.91 ± 4.28 µg/mL (≈ 162 µM).

As to `C=C1CC[C@@H](Br)C(C)(C)[C@@]12CC[C@@](C)(Br)[C@H](Cl)C2` [(+)-obtusane], the half-inhibitory concentration (IC50) in data set [2] (Table 1) is more than 25 µg/mL.

Regarding `C=C1CC(O)C(Br)C(C)(C)C12CCC(C)=C(Cl)C2` (single isomer, unassigned; (+)) [(+)-elatol], the IC50 came out at 0.38 ± 0.06 µg/mL (≈ 1.14 µM) in data set [1]; 0.36 ± 0.03 µg/mL (≈ 1.08 µM) in data set [2] (Naegleria fowleri, ATCC30808, Table 1, read-out: IC50); 0.36 ± 0.03 µg/mL (≈ 1.08 µM) in data set [2] (setting [6]). For the same molecule, the “ATCC® 30215™ SI” value in data set [1] was found to be 54.03. Besides, the “ATCC® 30808™ SI” value in data set [2] was 57.02. Further, in data set [3] (j774a.1 macrophages), it took 20.5 ± 4.33 µg/mL (≈ 61.5 µM) to reach half-maximal cytotoxicity (CC50 at 24 h).

`C=C1C[C@H](O)[C@H](Br)C(C)(C)C12CCC(C)(Cl)C(Br)C2` (single isomer, unassigned; (-)) [(-)-rogiolol]: the half-maximal inhibitory concentration (IC50) in data set [2] (Table 1) turned out to be 8.18 ± 0.92 µg/mL (≈ 19.7 µM). In data set [2] (Table 2), the “ATCC® 30808™ IC50” value came to 8.18 ± 0.92 µg/mL. In data set [2], the “ATCC® 30808™ SI” value is 5.57. The molecule also registered a CC50 in data set [4] of 45.56 ± 7.80 µg/mL (≈ 110 µM).

In the case of `C=C1CC(O)C(Br)C(C)(C)C12CC=C(C)CC2` (single isomer, unassigned; (-)) [(-)-10-bromochamigra-3,7(14)-dien-9-ol], in data set [2] (Table 1), the IC50 was more than 25 µg/mL.

Consider `C[C@@H]1[C@H](O)[C@@H](C)/C=C/C=C/C=C/C=C/C=C/C=C/C=C/[C@H](O[C@@H]2O[C@H](C)[C@@H](O)[C@H](N)[C@@H]2O)C[C@@H]2O[C@](O)(C[C@@H](O)C[C@@H](O)[C@H](O)CC[C@@H](O)C[C@@H](O)CC(=O)O[C@H]1C)C[C@H](O)[C@H]2C(=O)O` [Amphotericin B], for which, in data set [1], the IC50 was 0.15 ± 0.02 µg/mL (≈ 0.162 µM) and the “ATCC® 30215™ SI” value is reported as more than 1333.33. Also, the IC50 in data set [2] (setting [6]) is 0.11 ± 0.03 µg/mL (≈ 0.119 µM). The “ATCC® 30808™ SI” value in data set [2] was more than 1818.18. In data set [5], the “patients recover at least partially after its administration” value was 8%. This molecule also returned a CC50 at 24 h in data set [3] (j774a.1 macrophages) of more than 200 µg/mL.

In data set [2] (Table 1), `C=C1C[C@H](O)CC(C)(C)[C@@]12CCC(C)=C(Cl)C2` [(+)-debromoelatol] had an IC50 of more than 25 µg/mL.

Turning to debromolauriterol, in data set [1], the “ATCC® 30215™ IC50” value amounted to 14.13 ± 2.37 µg/mL and the “ATCC® 30215™ SI” value was found to be 1.07. Also, in data set [2] (Table 2), the “ATCC® 30808™ IC50” value was 5.54 ± 1.19 µg/mL. In addition, in data set [2], the “ATCC® 30808™ SI” value is 2.74. The molecule also displayed a CC50 in data set [4] of 15.17 ± 2.80 µg/mL.

Molecule “(-)-3,10-dibromo-4-chloro-alpha-chamigrene” yielded an IC50 in data set [2] (Table 1) of more than 25 µg/mL.

The molecule `C=C1C[C@@H](O)[C@@H](Br)C(C)(C)[C@]12CC[C@@](C)(O)[C@@H](Cl)C2` [(-)-dendroidiol] showed an IC50 in data set [2] (Table 1) of more than 25 µg/mL.
